From patent US5473039A, “Polypeptide analogs of apolipoprotein E, diagnostic systems and methods using the analogs” (The Scripps Research Institute, priority 1991, dated 1995)

Assays:
[1] = system: Human peripheral blood mononuclear (PBM) cells; assay: PHA-stimulated lymphocyte proliferation (3H-thymidine uptake); format: cell-based; settings: Example 17
Source text: A lymphocyte cell culture system was used to examine the ability of various polypeptides and conjugates to mimic the ability of Apo E to inhibit lymphocyte differentiation as evidence by proliferation.
Human peripheral blood mononuclear (PBM) cells are isolated from whole blood on a Ficoll-Hypaque gradient. The collected PBMs are washed three times with fresh medium (RPMI-1640 plus 5% fetal bovine serum, glutamine, penicillin, streptomycin and HEPES buffer). After washing, the cells are counted and set at a density of 1×10^5 /ml. For culture, 0.2 ml of the cells are plated per well of a 96-well microtiter plate. The peptide or conjugate is added to the wells in a 50 ul volume that can be either filter or UV sterilized. The typical timing for this experiment is to expose the cells to the Apo E polypeptide or self-conjugate over night. PHA, the mitogen that stimulates lymphocyte growth and proliferation, is added the next day. Forty-eight hours after the addition of PHA, 1 uCi of ^3 H-thymidine is added per well in a 1 ul volume and 18-24 hours later the cells are harvested on a mash. The mash cell harvester functions to collect the cells on filter paper where they are washed with buffer to remove free ^3 H-thymidine. The filter papers are dried, put into scintillation vials with scintillation cocktail and the B emissions obtained. Each data point collected represents the average thymidine uptake in four wells, and the standard error was less than 10% for all data points.
Various concentrations of various Apo E peptide were added to cultures that contained 8×10^5 peripheral blood mononuclear cells per ml. The cells were cultured at 37C and RPMI with 5% serum. All cells were exposed to PHA at 24 hours, labeled with 3H-thymidine at 72 hours and harvested at 90 hours. The counts per minute (cpm) of 3H-thymidine in the harvested cells was measured, and the data are expressed as the mean of four wells per treatment as a measure of thymidine uptake (x 1000 cpm). The standard deviation was less than 10% for all means.

[2] = target: LDL receptor (Homo sapiens, UniProt P01130); assay: 125I-LDL degradation by unstimulated THP-1 cells; format: cell-based; parameters: In the undifferentiated state THP-1 cells express LDL receptors that are regulated by the lipoprotein content of the culture medium; host or cells: THP-1 cells (unstimulated)
Source text: THP-1 cells were acquired from American Type Culture Collection and cultured in serum-free RPMI-1640 medium supplemented with 1% Nutridoma-HU for 48 hr to upregulate the LDL receptors. LDL was isolated by ultracentrifugation and radiolabeled using the iodine monochloride method as described in Example 8 to a specific activity 200-300 cpm/ng. Greater than 99% of the ^125 I-LDL ligand was precipitable by 10% TCA. The peptides indicated in FIGS. 1A and 1B were synthesized, as described in Example 1, purified to >95% by high pressure liquid chromatography and the amino acid composition verified. All peptides were solubilized in PBS. "AI 74-105"is a control peptide derived from residues 74-105 of apolipoprotein AI, "Monomer" is p(141-155), "Tandem Peptide" is p(141-155)2, "LDL" is unlabelled LDL, and "aLDL" is acetylated LDL.
Binding and degradation of LDL was evaluated as the disappearance of acid soluble ^125 I-LDL radioactivity from the incubation over a 5-hour incubation at 37C. Various concentrations of unlabeled LDL or tandem apo E peptide were coincubated with the ^125 I-LDL to determine their effects on binding and degradation.
For assay, 5×10^5 THP-1 cells in 0.5ml DMEM were co-incubated in a 1.5ml microfuge tube with 2-5 μg/ml of ^125 I-LDL at 37° C. in the presence of various concentrations of competitors indicated in FIGS. 1A and 1B. After 5 hr the cells were pelleted at 5000 x g, the supernatants were removed and the supernatants were extracted with 10% TCA and counted to form a TCA soluble cpm. The results were expressed as B/Bo where B equals the total TCA soluble cpm in supernatant collected in the presence of LDL or peptide and Bo equals the total TCA soluble cpm in supernatant of phosphate buffered saline (PBS) treated control cells. Each point is the average of 4 replicates with standard error of the mean (SEM),10%.

Chain of LDL receptor (P01130 22-860): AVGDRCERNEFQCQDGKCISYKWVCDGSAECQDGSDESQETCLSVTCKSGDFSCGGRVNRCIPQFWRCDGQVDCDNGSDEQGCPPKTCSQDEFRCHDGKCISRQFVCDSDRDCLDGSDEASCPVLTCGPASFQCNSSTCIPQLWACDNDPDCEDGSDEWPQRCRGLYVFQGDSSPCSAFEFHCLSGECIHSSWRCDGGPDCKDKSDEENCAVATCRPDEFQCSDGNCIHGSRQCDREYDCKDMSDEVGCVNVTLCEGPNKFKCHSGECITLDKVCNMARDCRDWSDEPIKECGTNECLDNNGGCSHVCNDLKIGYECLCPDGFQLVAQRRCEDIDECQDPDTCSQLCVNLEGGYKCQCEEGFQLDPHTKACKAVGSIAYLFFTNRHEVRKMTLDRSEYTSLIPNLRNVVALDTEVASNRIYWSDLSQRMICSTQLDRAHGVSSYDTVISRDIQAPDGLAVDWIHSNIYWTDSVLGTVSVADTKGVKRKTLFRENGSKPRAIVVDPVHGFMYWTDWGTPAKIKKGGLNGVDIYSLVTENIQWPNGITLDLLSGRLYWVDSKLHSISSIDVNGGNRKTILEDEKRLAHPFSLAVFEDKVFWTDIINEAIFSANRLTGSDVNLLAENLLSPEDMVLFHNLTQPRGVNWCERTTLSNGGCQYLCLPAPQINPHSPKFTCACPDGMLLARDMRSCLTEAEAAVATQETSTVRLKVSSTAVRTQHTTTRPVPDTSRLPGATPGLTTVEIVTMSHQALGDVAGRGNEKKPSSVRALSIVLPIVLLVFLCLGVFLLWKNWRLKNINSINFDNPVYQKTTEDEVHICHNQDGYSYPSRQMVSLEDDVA

CC(C)C[C@H](NC(=O)[C@H](CC(=O)O)NC(=O)[C@H](CC(=O)O)NC(=O)[C@H](C)NC(=O)[C@H](CC(=O)O)NC(=O)[C@H](CCCNC(=N)N)NC(=O)[C@H](CC(C)C)NC(=O)[C@H](CC(C)C)NC(=O)[C@H](CCCNC(=N)N)NC(=O)[C@H](CCCCN)NC(=O)[C@H](CCCNC(=N)N)NC(=O)[C@H](CC(C)C)NC(=O)[C@H](CCCCN)NC(=O)[C@H](CCCNC(=N)N)NC(=O)[C@H](CC(C)C)NC(=O)[C@H](CC(C)C)NC(=O)[C@H](CC(=O)O)NC(=O)[C@H](CC(=O)O)NC(=O)[C@H](C)NC(=O)[C@H](CC(=O)O)NC(=O)[C@H](CCCNC(=N)N)NC(=O)[C@H](CC(C)C)NC(=O)[C@H](CC(C)C)NC(=O)[C@H](CCCNC(=N)N)NC(=O)[C@H](CCCCN)NC(=O)[C@H](CCCNC(=N)N)NC(=O)[C@H](CC(C)C)NC(=O)[C@H](CCCCN)NC(=O)[C@H](CCCNC(=N)N)NC(=O)[C@@H](N)CC(C)C)C(=O)O [p(141-155)2]
ED50 or dose of peptide required to inhibit lymphocyte proliferation 50% [1]: 20 µM | molar excess compared with LDL required to achieve 50% inhibition of degradation [2]: ~200 fold | inhibition at 12.5 µM ([2]; THP-1, 12.5 uM): 80% | effect on LDL degradation by THP-1 cells ([2]; low concentrations of the tandem peptide): significant enhancement | IC50 ([2]; read-out: concentration inhibiting 125I-LDL degradation by 50%): 5 µM
